Source: patent US20060069132A1, “Azolecarboxamide herbicides” (priority 2004, published 2006)

What was measured:
Surinam grass = assay: Test B pre-/postemergence herbicide test; type: in vivo, Urochloa decumbens; settings: for Plant response rating (0 to 100 scale), Surinam Grass: 0 is no effect, 100 is complete control, preemergence
How it was run: (§1)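 Visual rating, 0 (no effect) to 100 (complete control), versus untreated controls after 13–15 d in greenhouse. Pre- and postemergence applications (postemergence plants 2–18 cm, 1–4 leaves); flooded paddy arm at 2-leaf stage. Compounds in non-phytotoxic solvent plus surfactant.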

giant foxtail = assay: Test B pre-/postemergence herbicide test; type: in vivo, Setaria faberi; settings: for Plant response rating (0 to 100 scale), Foxtail, Giant: 0 is no effect, 100 is complete control, preemergence
How it was run: as §1

lambsquarters = assay: Test B pre-/postemergence herbicide test; type: in vivo, Chenopodium album
How it was run: as §1

ducksalad = assay: Test B flooded paddy test; type: in vivo, Heteranthera limosa; settings: scale 0 to 100 (0 no effect, 100 complete control)
How it was run: (§2)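 After treating 2-leaf paddy plants or 2–18 cm postemergence plants (1 to 4 leaves) with formulated chemical, researchers kept them in a greenhouse for 13–15 days. Effects were judged visually versus controls: 0 indicates none, 100 total control.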

wild oat = assay: Test B postemergence herbicide test; type: in vivo, Avena fatua
How it was run: (§3)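 Formulated test chemicals went onto postemergence plants measuring 2 to 18 cm, at one to four leaves. For the paddy assay, species had reached two leaves. Scoring took place 13–15 days later by eye, relative to untreated plants, using 0 for no effect up to 100 for full control.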

morningglory = assay: Test B pre-/postemergence herbicide test; type: in vivo, Ipomoea coccinea; settings: for Plant response rating (0 to 100 scale), Morningglory: 0 is no effect, 100 is complete control, preemergence
How it was run: (§4)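 Flooded paddy rice and barnyardgrass were treated at the 2-leaf stage; upland plantings received compound either on sown seed or on 1- to 4-leaf seedlings. All were kept 13–15 days in a greenhouse and scored visually, 0–100, relative to untreated plants.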

pigweed = assay: Test B pre-/postemergence herbicide test; type: in vivo, Amaranthus retroflexus; settings: for Plant response rating (0 to 100 scale), Pigweed: 0 is no effect, 100 is complete control, preemergence
How it was run: as §1

blackgrass = assay: Test B postemergence herbicide test; type: in vivo, Alopecurus myosuroides
How it was run: as §2

corn = assay: Test B pre-/postemergence herbicide test; type: in vivo, Zea mays; settings: for Plant response rating (0 to 100 scale), Corn: 0 is no effect, 100 is complete control, preemergence
How it was run: as §1

wheat = assay: Test B postemergence herbicide test; type: in vivo, Triticum aestivum; set-up: key to Wheat plant response rating: 0 = no effect, 100 = complete control
How it was run: as §3

cocklebur = assay: Test B pre-/postemergence herbicide test; type: in vivo, Xanthium strumarium; settings: for Plant response rating (0 to 100 scale), Cocklebur: 0 is no effect, 100 is complete control, preemergence
How it was run: as §4

barnyardgrass [1] = assay: Test B pre-/postemergence herbicide test; type: in vivo, Echinochloa crus-galli; settings: for Barnyardgrass plant response rating: Postemergence, scale 0 (no effect) to 100 (complete control); for Plant response rating (0 to 100 scale), Barnyardgrass: 0 is no effect, 100 is complete control, preemergence
How it was run: as §4

large crabgrass = assay: Test B pre-/postemergence herbicide test; type: in vivo, Digitaria sanguinalis; settings: for Plant response rating (0 to 100 scale), Crabgrass, Large: 0 is no effect, 100 is complete control, preemergence
How it was run: as §1

[2] = test system: small flower umbrella sedge; assay: Test B flooded paddy test; type: in vivo, Cyperus difformis; settings: scale 0 to 100 (0 no effect, 100 complete control)
How it was run: as §2

barnyardgrass [3] = assay: Test B flooded paddy test; type: in vivo, Echinochloa crus-galli; settings: scale 0 to 100 (0 no effect, 100 complete control)
How it was run: as §2

rice = assay: Test B flooded paddy test; type: in vivo, Oryza sativa; settings: scale 0 to 100 (0 no effect, 100 complete control)
How it was run: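 Read-out: visual comparison with controls, scored 0 to 100, where 100 means complete control and 0 no effect. Formulated chemicals were applied postemergence to plants 2–18 cm tall (1- to 4-leaf), or to flooded-paddy plants at the 2-leaf stage, then held 13 to 15 days under glass.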

velvetleaf = assay: Test B pre-/postemergence herbicide test; type: in vivo, Abutilon theophrasti; settings: for Plant response rating (0 to 100 scale), Velvetleaf: 0 is no effect, 100 is complete control, preemergence
How it was run: as §1

[4] = Postemergence, 500 g ai/ha, scale 0 (no effect) to 100 (complete control)
[5] = postemergence, 125 g ai/ha, scale 0 to 100
[6] = 500 g ai/ha, scale 0 to 100, 0 no effect, 100 complete control, preemergence

C=CCN(CC=C)C(=O)c1cccc(NC(=O)c2nn(C(C)(C)C)nc2C)n1 [Compound 439]
Surinam Grass plant response rating (Surinam grass; [4]): 0 | Surinam Grass plant response rating (Surinam grass; [5]): 0 | Foxtail, Giant plant response rating (giant foxtail; [4]): 0 | Foxtail, Giant plant response rating (giant foxtail; [5]): 0 | Lambsquarters plant response rating (lambsquarters; [4]): 0 | Lambsquarters plant response rating (lambsquarters; [5]): 0 | Ducksalad plant response rating (ducksalad; 125 g ai/ha): 0 | Oat, Wild plant response rating (wild oat; [4]): 10 | Oat, Wild plant response rating (wild oat; [5]): 0 | Morningglory plant response rating (morningglory; [4]): 30 | Morningglory plant response rating (morningglory; [5]): 0 | Pigweed plant response rating (pigweed; [4]): 10 | Pigweed plant response rating (pigweed; [5]): 0 | Blackgrass plant response rating (blackgrass; [4]): 10 | Blackgrass plant response rating (blackgrass; [5]): 0 | Corn plant response rating (corn; [4]): 0 | Corn plant response rating (corn; [5]): 0 | Wheat plant response rating (wheat; [6]): 0 | Wheat plant response rating (wheat; [4]): 10 | Wheat plant response rating (wheat; [5]): 0 | Cocklebur plant response rating (cocklebur; [4]): 0 | Cocklebur plant response rating (cocklebur; [5]): 0 | Barnyardgrass plant response rating (barnyardgrass [1]; 125 g ai/ha): 0 | Barnyardgrass plant response rating (barnyardgrass [1]; 500 g ai/ha): 0 | Crabgrass, Large plant response rating (large crabgrass; [4]): 0 | Crabgrass, Large plant response rating (large crabgrass; [5]): 0 | Sedge, Umbrella plant response rating ([2]; 125 g ai/ha): 0 | Barnyardgrass plant response rating (barnyardgrass [3]; 125 g ai/ha): 0 | Rice plant response rating (rice; 125 g ai/ha): 0 | Velvetleaf plant response rating (velvetleaf; [4]): 0 | Velvetleaf plant response rating (velvetleaf; [5]): 0

Cc1nn(C(C)(C)C)nc1C(=O)Nc1cncc(C(=O)N(C)C)c1 [Compound 426]
Plant response rating (0 to 100 scale), Surinam Grass (Surinam grass; 125 g ai/ha): 10 | Surinam Grass plant response rating (Surinam grass; [4]): 20 | Surinam Grass plant response rating (Surinam grass; [5]): 10 | Plant response rating (0 to 100 scale), Foxtail, Giant (giant foxtail; 125 g ai/ha): 0 | Foxtail, Giant plant response rating (giant foxtail; [4]): 30 | Foxtail, Giant plant response rating (giant foxtail; [5]): 20 | Plant response rating (0 to 100 scale), Lambsquarters (lambsquarters; 125 g ai/ha, 0 is no effect, 100 is complete control, preemergence): 40 | Lambsquarters plant response rating (lambsquarters; [4]): 50 | Lambsquarters plant response rating (lambsquarters; [5]): 20 | Ducksalad plant response rating (ducksalad; 1000 g ai/ha): 70 | Oat, Wild plant response rating (wild oat; [4]): 0 | Oat, Wild plant response rating (wild oat; [5]): 0 | Plant response rating (0 to 100 scale), Morningglory (morningglory; 125 g ai/ha): 0 | Morningglory plant response rating (morningglory; [4]): 50 | Morningglory plant response rating (morningglory; [5]): 20 | Plant response rating (0 to 100 scale), Pigweed (pigweed; 125 g ai/ha): 50 | Pigweed plant response rating (pigweed; [4]): 50 | Pigweed plant response rating (pigweed; [5]): 30 | Blackgrass plant response rating (blackgrass; [4]): 0 | Blackgrass plant response rating (blackgrass; [5]): 0 | Plant response rating (0 to 100 scale), Corn (corn; 125 g ai/ha): 0 | Corn plant response rating (corn; [4]): 10 | Corn plant response rating (corn; [5]): 10 | Wheat plant response rating (wheat; [6]): 10 | Wheat plant response rating (wheat; [4]): 0 | Wheat plant response rating (wheat; [5]): 0 | Plant response rating (0 to 100 scale), Cocklebur (cocklebur; 125 g ai/ha): 0 | Cocklebur plant response rating (cocklebur; [4]): 20 | Cocklebur plant response rating (cocklebur; [5]): 10 | Plant response rating (0 to 100 scale), Barnyardgrass (barnyardgrass [1]; 125 g ai/ha): 10 | Barnyardgrass plant response rating (barnyardgrass [1]; 125 g ai/ha): 0 | Barnyardgrass plant response rating (barnyardgrass [1]; 500 g ai/ha): 20 | Plant response rating (0 to 100 scale), Crabgrass, Large (large crabgrass; 125 g ai/ha): 70 | Crabgrass, Large plant response rating (large crabgrass; [4]): 20 | Crabgrass, Large plant response rating (large crabgrass; [5]): 10 | Sedge, Umbrella plant response rating ([2]; 1000 g ai/ha): 70 | Barnyardgrass plant response rating (barnyardgrass [3]; 1000 g ai/ha): 0 | Rice plant response rating (rice; 1000 g ai/ha): 0 | Plant response rating (0 to 100 scale), Velvetleaf (velvetleaf; 125 g ai/ha): 10 | Velvetleaf plant response rating (velvetleaf; [4]): 40 | Velvetleaf plant response rating (velvetleaf; [5]): 30

CCc1nn(C(C)(C)C)nc1C(=O)Nc1cccc(C(=O)N2CCCCC2)c1 [Compound 416]
Plant response rating (0 to 100 scale), Surinam Grass (Surinam grass; 125 g ai/ha): 60 | Surinam Grass plant response rating (Surinam grass; [4]): 30 | Surinam Grass plant response rating (Surinam grass; [5]): 20 | Plant response rating (0 to 100 scale), Foxtail, Giant (giant foxtail; 125 g ai/ha): 70 | Foxtail, Giant plant response rating (giant foxtail; [4]): 30 | Foxtail, Giant plant response rating (giant foxtail; [5]): 20 | Lambsquarters plant response rating (lambsquarters; [4]): 80 | Lambsquarters plant response rating (lambsquarters; [5]): 70 | Ducksalad plant response rating (ducksalad; 1000 g ai/ha): 90 | Oat, Wild plant response rating (wild oat; [4]): 40 | Oat, Wild plant response rating (wild oat; [5]): 30 | Plant response rating (0 to 100 scale), Morningglory (morningglory; 125 g ai/ha): 0 | Morningglory plant response rating (morningglory; [4]): 70 | Morningglory plant response rating (morningglory; [5]): 30 | Plant response rating (0 to 100 scale), Pigweed (pigweed; 125 g ai/ha): 70 | Pigweed plant response rating (pigweed; [4]): 80 | Pigweed plant response rating (pigweed; [5]): 60 | Blackgrass plant response rating (blackgrass; [4]): 30 | Blackgrass plant response rating (blackgrass; [5]): 20 | Plant response rating (0 to 100 scale), Corn (corn; 125 g ai/ha): 20 | Corn plant response rating (corn; [4]): 30 | Corn plant response rating (corn; [5]): 20 | Wheat plant response rating (wheat; [6]): 60 | Wheat plant response rating (wheat; [4]): 30 | Wheat plant response rating (wheat; [5]): 20 | Plant response rating (0 to 100 scale), Cocklebur (cocklebur; 125 g ai/ha): 0 | Cocklebur plant response rating (cocklebur; [4]): 60 | Cocklebur plant response rating (cocklebur; [5]): 50 | Plant response rating (0 to 100 scale), Barnyardgrass (barnyardgrass [1]; 125 g ai/ha): 70 | Barnyardgrass plant response rating (barnyardgrass [1]; 125 g ai/ha): 20 | Barnyardgrass plant response rating (barnyardgrass [1]; 500 g ai/ha): 30 | Plant response rating (0 to 100 scale), Crabgrass, Large (large crabgrass; 125 g ai/ha): 100 | Crabgrass, Large plant response rating (large crabgrass; [4]): 40 | Crabgrass, Large plant response rating (large crabgrass; [5]): 30 | Sedge, Umbrella plant response rating ([2]; 1000 g ai/ha): 80 | Barnyardgrass plant response rating (barnyardgrass [3]; 1000 g ai/ha): 60 | Rice plant response rating (rice; 1000 g ai/ha): 70 | Plant response rating (0 to 100 scale), Velvetleaf (velvetleaf; 125 g ai/ha): 10 | Velvetleaf plant response rating (velvetleaf; [4]): 50 | Velvetleaf plant response rating (velvetleaf; [5]): 40
